The results in this text go back to publication PMC6522510 (Nature Communications, 2019).

Holding throughout (design): species or system AML cell lines (8); Primary HTS, single concentration about 10 uM, Cell Titer Glo viability; log10 luminescence, per cent inhibition relative to cycloheximide control
Conditions in all cases: 72 h, relative to cycloheximide control, log10 luminescence, inhibitor
For orientation: ATP-based viability assays read luminescence as a measure of living cells.

The test system of experiment [1] is MV4-11.
The subject of experiment [2] is CMS.
Experiment [3] relates to CHRF288-11.
Experiment [4] concerns CMK.
The subject of experiment [5] is ML-2.
The test system of experiment [6] is MOLM-13.
Experiment [7] deals with M07e.
The subject of experiment [8] is U937.

Read-outs that look alike come from different tables or passages of the source.

Take `COc1cc2c(cc1O)CC[C@@H]1[C@@H]2CC[C@]2(C)[C@@H](O)CC[C@@H]12` [SJ000288002-4, 2-METHOXYESTRADIOL | 2-METHOXYESTRADIOL | PANZEM | PULMOLAR | 2-ME | 2-MEOE2 | 2ME2 | NSC-659853 | | 2-METHOXYESTRADIOL | 2-ME | 2-MEOE2 | 2ME2 | NSC-659853 | | 2-METHOXYESTRADIOL (2-MEOE2)]: the MV4-11 %inh in experiment [1] (MV4-11 %inh, 10 µM) is reported as 99.75%. The CMS %inh in experiment [2] (CMS %inh, 10 µM) was 122.6%. Moreover, the CHRF288-11 %inh in experiment [3] (CHRF288-11 %inh, 10 µM) is on record as 60.77%. Also, in experiment [4] (CMK %inh, 10 µM), the CMK %inh worked out at 133.7%. For the same molecule, in experiment [5] (ML-2 %inh, 10 µM), the ML-2 %inh worked out at 66.58%. Besides, the MOLM-13 %inh in experiment [6] (MOLM-13 %inh, 10 µM) turned out to be 91.74%. The M07e %inh in experiment [7] (M07e %inh, 10 µM) is recorded as 111%. In experiment [8] (U937 %inh, 10 µM), the U937 %inh is recorded as 95.83%.
With `COc1cc2c(cc1O)CC[C@@H]1[C@@H]2CC[C@]2(C)[C@@H](O)CC[C@@H]12` [SJ000288002-5, 2-METHOXYESTRADIOL | 2-METHOXYESTRADIOL | PANZEM | PULMOLAR | 2-ME | 2-MEOE2 | 2ME2 | NSC-659853 | | 2-METHOXYESTRADIOL | 2-ME | 2-MEOE2 | 2ME2 | NSC-659853 | | 2-METHOXYESTRADIOL (2-MEOE2)], the MV4-11 %inh in experiment [1] (MV4-11 %inh, 10 µM) is 76.13%. The CMS %inh in experiment [2] (CMS %inh, 10 µM) was found to be 96.86%. In addition, the CHRF288-11 %inh in experiment [3] (CHRF288-11 %inh, 10 µM) is 61.44%. The CMK %inh in experiment [4] (CMK %inh, 10 µM) amounted to 118%. Also, the ML-2 %inh in experiment [5] (ML-2 %inh, 10 µM) is reported as 56.77%. Besides, the MOLM-13 %inh in experiment [6] (MOLM-13 %inh, 10 µM) is listed as 80.44%. Also, the M07e %inh in experiment [7] (M07e %inh, 10 µM) worked out at 94.34%. In experiment [8] (U937 %inh, 10 µM), the U937 %inh was 80.21%.
With `Cc1ccc(=O)n(-c2ccccc2)c1` [SJ000288087-4, PIRFENIDONE], the MV4-11 %inh in experiment [1] was 8.387%. Also, the CMS %inh in experiment [2] came out at 4.387%. Further, the CHRF288-11 %inh in experiment [3] was found to be 10.42%. Further, the CMK %inh in experiment [4] is -5.144%. For the same molecule, the ML-2 %inh in experiment [5] is -0.2811%. Besides, the MOLM-13 %inh in experiment [6] is on record as 2.774%. Further, the M07e %inh in experiment [7] was -1.785%. For the same molecule, the U937 %inh in experiment [8] is reported as -2.099%.
As for `CCCCCCCCCCCCCCSCC(=O)O` [SJ000288209-4, TETRADECYLTHIOACETIC ACID], the MV4-11 %inh in experiment [1] was -0.2387%. Besides, the CMS %inh in experiment [2] is on record as -0.2083%. Besides, the CHRF288-11 %inh in experiment [3] is -0.5942%. Besides, the CMK %inh in experiment [4] is -1.764%. The ML-2 %inh in experiment [5] is -0.6377%. In addition, in experiment [6], the MOLM-13 %inh was -1.133%. The M07e %inh in experiment [7] is 1.198%. In experiment [8], the U937 %inh was -2.154%.
Consider `Clc1cnc(Oc2ccc(Oc3ncc(Cl)cc3Cl)cc2)c(Cl)c1` [SJ000288225-4, TCPOBOP], for which the MV4-11 %inh in experiment [1] is recorded as 0.7208%. The CMS %inh in experiment [2] was -0.7867%. In addition, the CHRF288-11 %inh in experiment [3] was found to be 4.243%. In experiment [4], the CMK %inh is reported as -2.209%. Further, the ML-2 %inh in experiment [5] is 1.606%. Besides, the MOLM-13 %inh in experiment [6] is given as -2.278%. For the same molecule, the M07e %inh in experiment [7] is reported as 1.992%. For the same molecule, the U937 %inh in experiment [8] is recorded as -1.704%.
Turning to `C/C(=C\c1ccc(C(=O)O)cc1)c1ccc2c(c1)C(C)(C)CCC2(C)C` [SJ000288227-4, TTNPB | TTNPB (AROTINOID ACID)], in experiment [1], the MV4-11 %inh was 20.2%. In experiment [2], the CMS %inh is 11.71%. Besides, the CHRF288-11 %inh in experiment [3] is listed as 0.3991%. Further, the CMK %inh in experiment [4] turned out to be 5.715%. The ML-2 %inh in experiment [5] was 2.308%. For the same molecule, in experiment [6], the MOLM-13 %inh came out at 8.388%. Further, the M07e %inh in experiment [7] was 3.996%. The U937 %inh in experiment [8] was found to be 8.124%.
For the molecule `O=C1Nc2ccccc2/C1=C\c1c(Cl)[nH]c2ccccc12` [SJ000312180-2, CDK1 INHIBITOR], the MV4-11 %inh in experiment [1] is 76.6%. For the same molecule, the CMS %inh in experiment [2] is 93.89%. Further, the CHRF288-11 %inh in experiment [3] was determined as 68.22%. The CMK %inh in experiment [4] worked out at 109.3%. Further, the ML-2 %inh in experiment [5] is 57.06%. Further, the MOLM-13 %inh in experiment [6] is given as 82.19%. Also, in experiment [7], the M07e %inh was 105.1%. For the same molecule, in experiment [8], the U937 %inh is 78.83%.
As for `COCC1=C(C(=O)O)N2C(=O)[C@@H](NC(=O)/C(=N\OC)c3csc(N)n3)[C@H]2SC1` [SJ000312312-2, CEFPODOXIME, FREE ACID| R-3763| U-76253 | CEFPODOXIME, FREE ACID| R-3763| U-76253 | (6R,7R)-7-((Z)-2-(2-AMINOTHIAZOL-4-YL)-2-(METHOXYIMINO)ACETAMIDO)-3-(METHOXYMETHYL)-8-OXO-5-THIA-1-AZABICYCLO[4.2.0]OCT-2-ENE-2-CARBOXYLIC ACID], the MV4-11 %inh in experiment [1] is -2.052%. For the same molecule, in experiment [2], the CMS %inh is on record as -1.332%. Further, the CHRF288-11 %inh in experiment [3] is given as 0.005285%. Further, in experiment [4], the CMK %inh was found to be 34.96%. For the same molecule, in experiment [5], the ML-2 %inh is -0.4312%. Moreover, the MOLM-13 %inh in experiment [6] is -1.275%. In experiment [7], the M07e %inh is recorded as -1.66%. Moreover, the U937 %inh in experiment [8] is given as -1.004%.
As for `C[C@]12CCC(=O)C=C1[C@@H]1C[C@@H]1[C@H]1[C@@H]3[C@@H]4C[C@@H]4[C@@]4(CCC(=O)O4)[C@@]3(C)CC[C@@H]12` [SJ000312356-2, DROSPIRENONE], in experiment [1], the MV4-11 %inh is listed as 3.583%. Also, in experiment [2], the CMS %inh turned out to be 0.9318%. The CHRF288-11 %inh in experiment [3] is 6.784%. In experiment [4], the CMK %inh was found to be 38.69%. Moreover, the ML-2 %inh in experiment [5] is recorded as -0.6244%. The MOLM-13 %inh in experiment [6] is 1.327%. Also, the M07e %inh in experiment [7] was determined as 3.09%. In addition, in experiment [8], the U937 %inh was found to be 3.696%.
For the molecule `COc1ccc2nc3cc(Cl)ccc3c(Nc3cc(CN4CCCC4)c(O)c(CN4CCCC4)c3)c2n1` [SJ000518979-1, PYRONARIDINE PHOSPHATE], in experiment [1], the MV4-11 %inh is listed as 74.19%. The CMS %inh in experiment [2] is recorded as 102.4%. In addition, in experiment [3], the CHRF288-11 %inh came out at 68.68%. Moreover, the CMK %inh in experiment [4] worked out at 87.35%. Also, in experiment [5], the ML-2 %inh turned out to be 59.06%. The MOLM-13 %inh in experiment [6] is 93.43%. Moreover, the M07e %inh in experiment [7] was determined as 115%. Further, in experiment [8], the U937 %inh is reported as 76.7%.
Take `Clc1ccc2c(N3CCN(CCCN4CCN(c5ccnc6cc(Cl)ccc56)CC4)CC3)ccnc2c1` [SJ000518980-1, PIPERAQUINE PHOSPHATE]: the MV4-11 %inh in experiment [1] is 0.4168%. For the same molecule, in experiment [2], the CMS %inh is 3.926%. Moreover, the CHRF288-11 %inh in experiment [3] is recorded as -8.556%. Also, in experiment [4], the CMK %inh is listed as -2.506%. Also, in experiment [5], the ML-2 %inh is reported as -2.97%. In addition, in experiment [6], the MOLM-13 %inh is listed as -0.1677%. For the same molecule, the M07e %inh in experiment [7] is reported as -0.3802%. In experiment [8], the U937 %inh is given as -2.593%.
Regarding `CO[C@H]1C[C@@H]2CC[C@@H](C)[C@@](O)(O2)C(=O)C(=O)N2CCCC[C@H]2C(=O)O[C@H]([C@H](C)C[C@@H]2CC[C@@H](OC(=O)C(C)(CO)CO)[C@H](OC)C2)CC(=O)[C@H](C)/C=C(\C)[C@@H](O)[C@@H](OC)C(=O)[C@H](C)C[C@H](C)/C=C/C=C/C=C/1C` [SJ000518987-1, TEMSIROLIMUS | CCI-779 | NSC-683864 | TORISEL | TEMSIROLIMUS (CCI-779, NSC 683864)], the MV4-11 %inh in experiment [1] is 11.74%. In addition, in experiment [2], the CMS %inh came out at 21.7%. Further, the CHRF288-11 %inh in experiment [3] amounted to 29.37%. The CMK %inh in experiment [4] stood at 14.34%. Further, the ML-2 %inh in experiment [5] stood at 9.499%. The MOLM-13 %inh in experiment [6] is 6.723%. In experiment [7], the M07e %inh was found to be 19.45%. Moreover, the U937 %inh in experiment [8] is given as 25.81%.
